# Experimental data as given in patent US11053243B2 (Merck Sharp & Dohme Corp., priority 2009, dated 2021).
# System: HCV genotype 1b replicon
# Experiment: HCV replicon assay, genotype 1b
# Type: cell-based, hepatitis C virus
# Details: Hepatitis C virus; genotype 1b replicon cells, 24 to 72 hours incubation, luciferase activity
# Method: The HCV replicons and NS5A inhibitory activity of the present compounds may be tested using assays known in the art. HCV inhibitors, such as those described in the Examples herein have activities in genotype 1b, 2a and 1a replicon assays of from about 1 pM to about 1 μM. The assay is performed by incubating a replicon harboring cell-line in the presence of inhibitor for a set period of time and measuring the effect of the inhibitor on HCV replicon replication either directly by quantifying replicon RNA level, or indirectly by measuring enzymatic activity of a co-encoded reporter enzyme such as luciferase or β-lactamase. By performing a series of such measurements at different inhibitor concentrations, the effective inhibitory concentration of the inhibitor (EC50 or EC90) is determined. See Jan M. Vrolijk et al., A replicons-based bioassay for the measurement of interferons in patients with chronic hepatitis C, 110 J. VIROLOGICAL METHODS 201 (2003). Such assays may also be run in an automated format for high through-put screening. See Paul Zuck et al., A cell-based β-lactamase reporter gene assay for the identification of inhibitors of hepatitis C virus replication, 334 ANALYTICAL BIOCHEMISTRY 344 (2004).
# Measurement of inhibition by compounds was performed using the HCV replicon system. Several different replicons encoding different HCV genotypes or mutations were used. In addition, potency measurements were made using different formats of the replicon assay, including different ways of measurements and different plating formats. See Jan M. Vrolijk et al., A replicons-based bioassay for the measurement of interferons in patients with chronic hepatitis C, 110 J. VIROLOGICAL METHODS 201 (2003); Steven S. Carroll et al., Inhibition of Hepatitis C Virus RNA Replication by 2′-Modified Nucleoside Analogs, 278(14) J. BIOLOGICAL CHEMISTRY 11979 (2003). However, the underlying principles are common to all of these determinations, and are outlined below.
# Stable neomycin phosphotransferase encoding replicon-harboring cell lines were used, so all cell lines were maintained under G418 selection prior to the assay. In some cases, the cell lines encoded a luciferase:Neor fusion and could be assayed either directly by determination of RNA copy number, or indirectly through measurement of the luciferase activity.
# To initiate an assay, replicon cells were plated in the presence of a dilution series of test compound in the absence of G418. Typically, the assays were performed in a 96-well plate format for manual operation, or a 384-well plate in an automated assay. Replicon cells and compound were incubated for 24 to 72 hours. At the end of the assay, cells are washed free of media and compound and then lysed. Luciferase activity was measured using a conventional luciferase assay. EC50 determinations were calculated as a percent of a DMSO control by fitting the data to a four parameter fit function.
# The activity table below provides representative data illustrating observed activity against genotype 1b.
row,SMILES,EC50
1,"Cc1cccc(-c2c(-c3ccc(NC(=O)[C@@H]4CCCN4C(=O)[C@H](NC(=O)OC(C)(C)C)c4ccccc4)cc3)[nH]c3ccc(NC(=O)[C@@H]4CCCN4C(=O)[C@H](NC(=O)OC(C)(C)C)c4ccccc4)cc23)c1 [Example 169, tert-butyl {(1R)-2-[(2S)-2-({4-[5-({[(2S)-1-{(2R)-2-[(tert-butoxycarbonyl)amino]-2-phenylacetyl}pyrrolidin-2-yl]carbonyl}amino)-3-(3-methylphenyl)-1H-indol-2-yl]phenyl}carbamoyl)pyrrolidin-1-yl]-2-oxo-1-phenylethyl}carbamate]",0.004 nM
2,"CC(=O)NCC#Cc1cc2cc(NC(=O)[C@@H]3CCCN3C(=O)[C@H](NC(=O)OC(C)(C)C)c3ccccc3)ccc2[nH]1 [Example 178, tert-butyl {(1R)-2-[(2S)-2-({2-[3-(acetylamino)prop-1-yn-1-yl]-1H-indol-5-yl}carbamoyl)pyrrolidin-1-yl]-2-oxo-1-phenylethyl}carbamate]",317 nM
3,"CC(C)(C)OC(=O)N[C@H](C(=O)N1CCC[C@H]1C(=O)Nc1ccc(-c2cc3cc(C#N)ccc3[nH]2)cc1)c1ccccc1 [Example 186, tert-butyl {(1S)-2-[(2S)-2-{[4-(5-cyano-1H-indol-2-yl)phenyl]carbamoyl}pyrrolidin-1-yl]-2-oxo-1-phenylethyl}carbamate]",0.015 nM
4,"COC(=O)N[C@H](C(=O)N1CCC[C@H]1c1ncc(-c2ccc3c(c2)OCn2c-3cc3cc(-c4cnc([C@@H]5CCCN5C(=O)[C@@H](NC(=O)OC)C(C)C)[nH]4)ccc32)[nH]1)C(C)C [Example 189a, methyl [(2S)-1-{(2S)-2-[5-(10-{2-[(2S)-1-{(2S)-2-[(methoxycarbonyl)amino]-3-methylbutanoyl}pyrrolidin-2-yl]-1H-imidazol-5-yl}indolo[1,2-c] [1,3]benzoxazin-3-yl)-1H-imidazol-2-yl]pyrrolidin-1-yl}-3-methyl-1-oxobutan-2-yl]carbamate]",0.15 nM
5,COC(=O)N[C@H](C(=O)N1CCC[C@H]1c1ncc(-c2ccc3c(c2)OCn2c-3c(F)c3cc(-c4cnc([C@@H]5CCCN5C(=O)[C@@H](NC(=O)OC)C(C)C)[nH]4)ccc32)[nH]1)C(C)C [Example 189b],0.001 nM
6,"CCN(CC)[C@@H](C(=O)N1CCC[C@H]1C(=O)Nc1ccc2[nH]c(-c3ccc(-c4nnc([C@@H]5CCCN5C(=O)[C@@H](c5ccccc5)N(CC)CC)o4)cc3)cc2c1)c1ccccc1 [Example 191, 1-[(2R)-2-(diethylamino)-2-phenylacetyl]-N-{2-[4-(5-{(2S)-1-[(2R)-2-(diethylamino)-2-phenylacetyl]pyrrolidin-2-yl}-1,3,4-oxadiazol-2-yl)phenyl]-1H-indol-5-yl}-L-prolinamide]",0.02 nM
7,"COC(=O)N[C@H](C(=O)N1CCC[C@H]1c1ncc(-c2ccc(-c3cc4cc(-c5cnc([C@@H]6CCCN6C(=O)[C@@H](NC(=O)OC)C(C)C)[nH]5)ccc4o3)cc2)[nH]1)C(C)C [Example 192, Methyl {(2S)-1-[(2S)-2-{5-[4-(5-{2-[(2S)-1-{(2S)-2-[(methoxy-carbonyl)amino]-3-methylbutanoyl}pyrrolidin-2-yl]-1H-imidazol-5-yl}-1-benzofuran-2-yl)phenyl]-1H-imidazol-2-yl}pyrrolidin-1-yl]-3-methyl-1-oxobutan-2-yl}carbamate]",0.002 nM
8,"CCN(CC)[C@@H](C(=O)N1CCC[C@H]1c1ncc(-c2ccc(-c3cc4cc(-c5cnc([C@@H]6CCCN6C(=O)[C@@H](c6ccccc6)N(CC)CC)[nH]5)ccc4o3)cc2)[nH]1)c1ccccc1 [Example 193, (2R)-2-(diethylamino)-1-[(2S)-2-(5-{4-[5-(2-{(2S)-1-[(2R)-2-(diethylamino)-2-phenylacetyl]pyrrolidin-2-yl}-1H-imidazol-5-yl)-1-benzofuran-2-yl]phenyl}-1H-imidazol-2-yl)pyrrolidin-1-yl]-2-phenylethanone]",0.05 nM
9,"COC(=O)N[C@@H](C(=O)N1CCC[C@H]1c1ncc(-c2ccc(-c3nc4cc(-c5cnc([C@@H]6CCCN6C(=O)[C@H](NC(=O)OC)c6ccccc6)[nH]5)ccc4o3)cc2)[nH]1)c1ccccc1 [Example 213, Methyl {(1R)-2-[(2S)-2-{5-[4-(5-{2-[(2S)-1-{(2R)-2-[(methoxycarbonyl)amino]-2-phenylacetyl}pyrrolidin-2-yl]-1H-imidazol-5-yl}-1,3-benzoxazol-2-yl)phenyl]-1H-imidazol-2-yl}pyrrolidin-1-yl]-2-oxo-1-phenylethyl}carbamate]",0.009 nM

# Same assay, conditions: genotype 1b replicon cells, 24 to 72 hours incubation, luciferase activity
row,SMILES,EC50
1,"CN(C)[C@@H](C(=O)N1CCC[C@H]1C(=O)Nc1ccc2[nH]c(-c3nc4cc(NC(=O)[C@@H]5CCCN5C(=O)[C@@H](c5ccccc5)N(C)C)ccc4o3)cc2c1)c1ccccc1 [Example 190, (2S)-1-[(2R)-2-(dimethylamino)-2-phenylacetyl]-N-(2-{5-[({(2S)-1-[(2R)-2-(dimethylamino)-2-phenylacetyl]pyrrolidin-2-yl}carbonyl)amino]-1,3-benzoxazol-2-yl}-1H-indol-5-yl)pyrrolidine-2-carboxamide]",0.067 nM
